US20250051727A1, “CARDIAC ORGANOID WITH INNER PART HAVING CAVITIES AND MULTIPLE LAYERS” (MEDIZINISCHE HOCHSCHULE HANNOVER, priority 2018, published 2025)

System: cardiac organoids (from hESC3 NKX2.5-eGFP)
Format: cell-based, human
Experimental: The process was performed for steps a) to n) as described with reference to FIG. 1. Incubation under cell culture conditions was in a 5% CO2 atmosphere at 37° C., using ultra-low attachment 96 well microtiter plates, Nunclon Sphera 96U-well plate available from Thermo Fisher Scientific, as the first vessels. The PSC were the human embryonic stem cell line hESC3 NKX2.5-eGFP. These exemplary PSC were genetically manipulated to express enhanced green fluorescent protein (eGFP) as a reporter under the control of the early cardiomyocyte-specific marker NKX2.5 to indicate early cardiomyocyte differentiation.
These PSC were cultivated on cell culture flasks (preferably Geltrex-coated) in E8 medium and detached from the flasks to provide the PSC in suspension. In step a), 5000 PSC suspended in 100 μL of the first medium, which was E8 medium (DMEM/F12, L-ascorbic acid-2-phosphate magnesium (64 mg/L), sodium selenium (14 μg/L), FGF2 (100 μg/L), insulin (19.4 mg/L), NaHCO3 (543 mg/L) and transferrin (10.7 mg/L), TGFβ1 (2 μg/L) or NODAL (100 μg/L), osmolarity adjusted to 340 mOsm at pH7.4) supplemented with 10 μM ROCK inhibitor (Y-27632, catalogue No. 72302, Stemcell Technologies)), were carefully dispensed into wells of the microtiter plate. Centrifugation of step b) was twice for 3 min at 300× g with the centrifuge cooled to 4° C. The centrifuged first vessels each contained one agglomerate on the U-shaped bottom and were carefully placed into a cell culture incubator in order to avoid disturbance of the cells localized at the U-shaped bottom. Incubation of step c) without agitation was for 24 h, resulting in the formation of an aggregate of the cells. For embedding in Matrigel (thawed on ice, 9.7 to 10.1 mg/mL protein content) as the exemplary hydrogel, 20 μL Matrigel were positioned in each well of a microtiter plate, the wells of which forming second vessels, which plate was of the same ultra-low attachment quality as the first. […]

## O=C1CCC(N2C(=O)c3ccccc3C2=O)C(=O)N1 (stereo not drawn) [Thalidomide]
  thickness of the myocardial ring compared to Controls (micrographs, FIG. 15): substantially thinner than in Controls
human, 80 μg/mL
  NKX2.5-eGFP-positive cells on the outer layer (micrographs, FIG. 15): absence of any NKX2.5-eGFP-positive cells on the outer layer
  average diameter of the myocardial ring: 165 μm
